Results on 1 molecule are retold here after patent publication EP3697380B1, “ORAL CARE PREPARATIONS COMPRISING CHLORHEXIDINE AND ARGININE OR THEIR SALTS” (priority 2019, dated 2020).

Each structure is given as a SMILES string.

This data set can be described thus: Stability of chlorhexidine in simplified formulations by HPLC-UV after storage at 60°C. The data set is classed as physicochemical. Conditions: result in words; formulations with arginine versus without, 60°C for 42 days. The protocol: The following simplified formulations were used for these studies: […]
The stability of the formulations was measured by HPLC-UV after storage at 60°C for 42 days. The formulations were stored in PET bottles with PP caps.
Compositions 1-4 include arginine as a stabilising agent. […] In particular, compositions 1-4 and compositions 5-7 differ only in the presence or absence of arginine.

For `N=C(N)NCCCC(N)C(=O)O` (stereo not shown) [arginine, 2-amino-5-guanidinopentanoic acid], the “stability of the chlorhexidine” value was “improved the stability”.
